We go through 15 compounds from PubChem BioAssay (NCI).

Structures are written as SMILES.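 All cell lines were grown in 96-well plates and treated with compound for 48 hours. The concentration for 50% growth inhibition is given as GI50. TGI is the concentration that stops growth completely.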

Some test systems named below: UACC-257 melanoma; SK-OV-3 ovarian; NCI-H460 lung; OVCAR-5 ovarian; SW-620 colon; SF-539 CNS; EKVX NSCLC; SK-MEL-5 melanoma; LOX IMVI melanoma; HCC-2998 colon.
What all share (experiment): NCI anticancer screen, dose series, 48 h

With `Nc1c(C(=O)Nc2ccccc2O)[n+]([O-])c2ccccc2[n+]1[O-]`, the TGI was 44.6 µM with UACC-257 melanoma; greater than 100 µM in the assay with SK-OV-3 ovarian; greater than 100 µM in the assay on NCI-H460 lung; greater than 100 µM in the assay on OVCAR-5 ovarian; 48.6 µM with SW-620 colon; greater than 100 µM in the assay on SF-539 CNS. The values for the TGI in the assay on EKVX NSCLC and in the assay on SK-MEL-5 melanoma were greater than 100 µM and 28.3 µM, respectively.
`CCOC(=O)C1=CSC2=NC3=C(CCC/C3=C\c3cc(OC)c(OC)c(OC)c3)C(c3cc(OC)c(OC)c(OC)c3)N12` (centres undefined): the GI50 in the assay on UACC-257 melanoma was 1.73 µM; in the assay on OVCAR-5 ovarian it was greater than 100 µM; with SW-620 colon, 1.54 µM; in the assay on EKVX NSCLC, greater than 100 µM. The TGI in the assay with UACC-257 melanoma, with OVCAR-5 ovarian, with SW-620 colon and in the assay with EKVX NSCLC was greater than 100 µM in each case.
For `O=CC(O)C(O)C(OC1OC(CO)C(O)C(O)C1O)C(O)CO` (centres undefined) (tested in a mixture with another compound), the TGI with UACC-257 melanoma, with SK-OV-3 ovarian, in the assay on NCI-H460 lung, in the assay on OVCAR-5 ovarian, in the assay on SW-620 colon and in the assay on SF-539 CNS was greater than 100 µM throughout. Besides, the TGI in the assay with SK-MEL-5 melanoma was greater than 100 µM.
With `O=C1c2ccccc2-c2c1c1ccc([N+](=O)[O-])cc1c(=O)n2CCCCl`, the GI50 in the assay on UACC-257 melanoma is greater than 100 µM; with SK-OV-3 ovarian, 63.4 µM; with NCI-H460 lung it was 2.61 µM; in the assay on OVCAR-5 ovarian it was greater than 100 µM; with SW-620 colon, 3.12 µM; with EKVX NSCLC it was greater than 100 µM. Besides, the GI50 with SK-MEL-5 melanoma is 0.874 µM; with LOX IMVI melanoma it was 3.24 µM. In addition, the TGI in the assay on UACC-257 melanoma was greater than 100 µM; with SK-OV-3 ovarian, greater than 100 µM; in the assay with NCI-H460 lung it was 67.5 µM; in the assay on OVCAR-5 ovarian, greater than 100 µM; in the assay on SW-620 colon, greater than 100 µM; in the assay on EKVX NSCLC it was greater than 100 µM. Further, the values for the TGI with SK-MEL-5 melanoma and with LOX IMVI melanoma were 5.89 µM and greater than 100 µM, respectively.
For the compound `Cc1ccc(C(=O)N2C/C(=C/c3ccccc3)C(=O)/C(=C/c3ccccc3)C2)cc1`, the GI50 with UACC-257 melanoma was 10.1 µM; in the assay with SK-OV-3 ovarian, 8.64 µM; in the assay with NCI-H460 lung, 31 µM; in the assay with OVCAR-5 ovarian, greater than 75.5 µM; with HCC-2998 colon it was 3.08 µM; in the assay with SW-620 colon, 2.94 µM. Also, the GI50 in the assay with SF-539 CNS was 9.66 µM; in the assay with SK-MEL-5 melanoma it was 3.3 µM; with LOX IMVI melanoma, 1.16 µM. The TGI with UACC-257 melanoma is greater than 100 µM; in the assay on SK-OV-3 ovarian, greater than 100 µM; in the assay on NCI-H460 lung, greater than 100 µM; in the assay on OVCAR-5 ovarian it was greater than 100 µM; in the assay on HCC-2998 colon, 8.67 µM; in the assay with SW-620 colon, greater than 59.3 µM. Besides, the TGI in the assay on SF-539 CNS is 72.2 µM; in the assay with SK-MEL-5 melanoma, greater than 31.6 µM; with LOX IMVI melanoma, 3.08 µM.
Take `COc1ccc(C(=O)/C=C/c2ccc(OCc3ccccc3)c(OC)c2)cc1OC`: the GI50 in the assay with UACC-257 melanoma was 6.25 µM; in the assay with SK-OV-3 ovarian it was 2.97 µM; in the assay on NCI-H460 lung, 2.93 µM; with OVCAR-5 ovarian, 3.55 µM; in the assay with HCC-2998 colon, 3.22 µM; in the assay on SW-620 colon, 3.05 µM. For the same compound, the GI50 in the assay with SF-539 CNS was 2.67 µM; with SK-MEL-5 melanoma it was 3.61 µM; in the assay on LOX IMVI melanoma, 2.84 µM. For the same compound, the TGI in the assay with UACC-257 melanoma is greater than 100 µM; in the assay on SK-OV-3 ovarian it was 12.4 µM; with NCI-H460 lung, 14.4 µM; with OVCAR-5 ovarian, greater than 100 µM; in the assay on HCC-2998 colon it was 28 µM; in the assay on SW-620 colon, greater than 100 µM. Besides, the TGI with SF-539 CNS came out at 7.38 µM; in the assay with SK-MEL-5 melanoma it was 17.2 µM; with LOX IMVI melanoma, 24.1 µM.
Turning to `CCOC(=O)C1=C(C)N(Cc2ccc(Cl)cc2Cl)[C@]2(C#N)C(O)=C(Cl)C(Cl)=C(O)[C@]12C#N`, the GI50 in the assay with UACC-257 melanoma was greater than 100 µM; with SK-OV-3 ovarian, greater than 100 µM; in the assay on NCI-H460 lung, greater than 100 µM; in the assay on OVCAR-5 ovarian it was 2.7 µM; with SW-620 colon it was 31.8 µM; in the assay with SF-539 CNS it was 14.2 µM. For the same compound, the GI50 in the assay on EKVX NSCLC was greater than 100 µM; with SK-MEL-5 melanoma, greater than 100 µM; in the assay with LOX IMVI melanoma, 17.5 µM. The TGI with UACC-257 melanoma is greater than 100 µM; in the assay with SK-OV-3 ovarian it was greater than 100 µM; in the assay on NCI-H460 lung, greater than 100 µM; with OVCAR-5 ovarian, 31.3 µM; in the assay with SW-620 colon, 82.9 µM; in the assay on SF-539 CNS, 33.1 µM. Also, the TGI in the assay with EKVX NSCLC was greater than 100 µM; in the assay on SK-MEL-5 melanoma it was greater than 100 µM; in the assay with LOX IMVI melanoma, 35 µM.
With `O=c1c2cccc3cccc(c4n1CCCN=4)c32`, the TGI with UACC-257 melanoma, in the assay with SK-OV-3 ovarian, in the assay on NCI-H460 lung, with OVCAR-5 ovarian, in the assay with SW-620 colon and in the assay with SF-539 CNS was greater than 100 µM throughout. Besides, the TGI is greater than 100 µM in the assay on EKVX NSCLC, greater than 100 µM in the assay on SK-MEL-5 melanoma and 53.5 µM with LOX IMVI melanoma.
Regarding `CN(C)CCS(=O)(=O)Nc1cc(-c2ccc3ncnc(Nc4ccc(F)c(Cl)c4)c3c2)cnc1Cl`, the GI50 with UACC-257 melanoma was 0.775 µM; in the assay with SK-OV-3 ovarian, 0.261 µM; with NCI-H460 lung, 1.04 µM; in the assay with OVCAR-5 ovarian, 0.268 µM; in the assay with HCC-2998 colon it was 1.05 µM; in the assay on SW-620 colon it was 1.2 µM. Further, in the assay with SK-MEL-5 melanoma, the GI50 is 0.208 µM. In addition, the TGI in the assay with UACC-257 melanoma is 6.81 µM; in the assay on SK-OV-3 ovarian it was 1.64 µM; in the assay on NCI-H460 lung it was greater than 100 µM; in the assay with OVCAR-5 ovarian, greater than 22.8 µM; in the assay with HCC-2998 colon it was 3.04 µM; in the assay with SW-620 colon it was greater than 38 µM. In the assay with SK-MEL-5 melanoma, this compound yielded a TGI of 0.622 µM.
For `O=C(Nc1nc2c(s1)CCc1c-2c(Br)n(Cc2ccccc2)c1Br)c1ccccc1`, the GI50 in the assay with UACC-257 melanoma is 8.53 µM; in the assay with SK-OV-3 ovarian, 3.23 µM; in the assay on NCI-H460 lung, 3.82 µM; in the assay on OVCAR-5 ovarian, 47.3 µM; with HCC-2998 colon it was greater than 100 µM; in the assay with SW-620 colon, 21.4 µM. In addition, the GI50 with SF-539 CNS was 1.55 µM; in the assay on SK-MEL-5 melanoma, 2.17 µM; with LOX IMVI melanoma, 5.53 µM. Moreover, the TGI with UACC-257 melanoma is greater than 100 µM; in the assay on SK-OV-3 ovarian it was 16.3 µM; with NCI-H460 lung it was greater than 100 µM; in the assay with OVCAR-5 ovarian, greater than 100 µM; with HCC-2998 colon, greater than 100 µM; in the assay on SW-620 colon, greater than 100 µM. For the same compound, the TGI is 3.38 µM with SF-539 CNS, 11.6 µM in the assay with SK-MEL-5 melanoma and greater than 100 µM in the assay on LOX IMVI melanoma.
As for `Cc1nn2c(-c3nc4cc(Cl)c(Cl)cc4[nH]3)c(-c3ccc(F)cc3)nc2s1`, the GI50 in the assay with UACC-257 melanoma was 8.16 µM; with SK-OV-3 ovarian it was 1.98 µM; with NCI-H460 lung, 1.75 µM; in the assay with OVCAR-5 ovarian, 8.98 µM; in the assay on HCC-2998 colon it was greater than 100 µM; in the assay with SW-620 colon, 10.2 µM. Moreover, the figures for the GI50 with SF-539 CNS, in the assay with SK-MEL-5 melanoma and in the assay on LOX IMVI melanoma were 2.53 µM, 5.86 µM and 2.79 µM, respectively. Besides, the TGI in the assay on UACC-257 melanoma was greater than 100 µM; with SK-OV-3 ovarian, 4.46 µM; in the assay with NCI-H460 lung it was greater than 33.8 µM; with OVCAR-5 ovarian, greater than 100 µM; in the assay on HCC-2998 colon, greater than 100 µM; in the assay with SW-620 colon it was greater than 100 µM. Moreover, the TGI in the assay on SF-539 CNS is 11.1 µM; in the assay with SK-MEL-5 melanoma, greater than 100 µM; in the assay with LOX IMVI melanoma, greater than 100 µM.
As for `CC(=O)OC1COC(Oc2c(C)c3c4c(c2O)[C@@H](C)CC[C@@H]4[C@@H](C)C[C@H]3C=C(C)C)C(O)C1O` (some centres undefined), the GI50 was 20.7 µM with SK-OV-3 ovarian; 16.2 µM in the assay with NCI-H460 lung; 18.1 µM with OVCAR-5 ovarian; 15.1 µM with HCC-2998 colon; 16.4 µM in the assay on SK-MEL-5 melanoma; 19.1 µM in the assay with LOX IMVI melanoma. Moreover, the TGI with SK-OV-3 ovarian was found to be 44 µM; with NCI-H460 lung it was 52.2 µM; in the assay with OVCAR-5 ovarian it was 37.3 µM; in the assay on HCC-2998 colon, 31.3 µM; with SK-MEL-5 melanoma, 34.1 µM; in the assay on LOX IMVI melanoma, 40 µM.
With `CC1(C)N=C(N)N=C(N)N1c1ccc(OCCCCNC(=O)Nc2cccc(S(=O)(=O)F)c2)c(Cl)c1`, the GI50 in the assay on UACC-257 melanoma is 3.73 µM; in the assay with SK-OV-3 ovarian, greater than 100 µM; in the assay with NCI-H460 lung, 0.377 µM; in the assay on OVCAR-5 ovarian, 2.26 µM; in the assay on HCC-2998 colon, 5.22 µM; in the assay on SW-620 colon, 0.657 µM. Moreover, the figures for the GI50 with SF-539 CNS, in the assay with SK-MEL-5 melanoma and in the assay with LOX IMVI melanoma were 1.27 µM, 1.11 µM and 0.491 µM, respectively. Besides, the TGI in the assay with UACC-257 melanoma is greater than 100 µM; in the assay with SK-OV-3 ovarian, greater than 100 µM; in the assay with NCI-H460 lung, 25.3 µM; in the assay on OVCAR-5 ovarian, greater than 100 µM; in the assay on HCC-2998 colon, greater than 100 µM; in the assay with SW-620 colon, greater than 100 µM. For the same compound, the TGI in the assay with SF-539 CNS was 8.5 µM; in the assay on SK-MEL-5 melanoma, 23.7 µM; in the assay with LOX IMVI melanoma, greater than 100 µM.
For `O=C(Nc1ccc(Br)cc1)Nc1cccc(Br)c1`, the GI50 in the assay with UACC-257 melanoma is greater than 100 µM; with SK-OV-3 ovarian, 39.4 µM; with OVCAR-5 ovarian it was greater than 100 µM; in the assay with SW-620 colon, 5.54 µM; with SF-539 CNS, 15.3 µM; in the assay with SK-MEL-5 melanoma it was greater than 100 µM. Besides, the TGI in the assay with UACC-257 melanoma, with SK-OV-3 ovarian, in the assay with OVCAR-5 ovarian, with SW-620 colon, with SF-539 CNS and in the assay on SK-MEL-5 melanoma was greater than 100 µM in each case.
As for `CCN(CC)CCCNc1c2ccc(Cl)cc2nc2ccc(OC)cc12`, the GI50 in the assay on UACC-257 melanoma is 1.83 µM; in the assay on NCI-H460 lung it was 0.0326 µM; in the assay on SW-620 colon it was 0.0401 µM; in the assay with SK-MEL-5 melanoma it was 1.64 µM; in the assay on LOX IMVI melanoma it was 0.0342 µM. The TGI came out at 3.41 µM in the assay with UACC-257 melanoma; 1.34 µM in the assay on NCI-H460 lung; 2.36 µM with SW-620 colon; 3.02 µM with SK-MEL-5 melanoma; 1.93 µM in the assay on LOX IMVI melanoma.
